Measured values as given in patent US6461997B1, “Triazole sulfones having herbicidal activity” (Monsanto Technology LLC, priority 1999, dated 2002).

Tests used:
CONAR (field bindweed) [1] = assay: Pre-emergence herbicidal activity, warm season; assay type: in vivo, Convolvulus arvensis; details: GR80 = lowest tested rate (300, 100, 30, 10 g/ha) with 80% or greater inhibition; approx. 14 days after treating; 30/21° C.
Outline: (§1)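 Seeds sown in sterilised fertilised topsoil received surface-applied compound in 50:50 acetone/water, typically at 300, 100, 30 and 10 g/ha, then greenhouse-grown at 30/21° C (warm-season species) or 18/13° C (cool-season species). Percent inhibition versus untreated plants was scored at about 14 days, giving GR80; an asterisk marks activity short of 80% at the top rate.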

DATST (jimsonweed) = assay: Pre-emergence herbicidal activity, warm season; assay type: in vivo, Datura stramonium; details: GR80 = lowest tested rate (300, 100, 30, 10 g/ha) with 80% or greater inhibition; approx. 14 days after treating; 30/21° C.
Outline: as §1

CONAR (field bindweed) [2] = assay: Pre-plant incorporated (PPI) herbicidal activity, warm season; assay type: in vivo, Convolvulus arvensis; details: GR80 = lowest tested rate with 80% or greater inhibition, approx. 14 days after treating, 30/21° C.
Experimental: (§2) In another set of tests, the pre-plant incorporated (PPI) activity of compounds of this invention was evaluated on the same species as for the pre-emergence tests described above. In the PPI tests the following procedure, designed to simulate PPI application, was used.
(§3) A pre-prepared topsoil mixture (described above) was placed in a pot and compacted to a depth of 1.0 to 1.25 cm from the top of the pot. Seeds of each of several monocotyledonous and dicotyledonous annual plant species were placed on top of the soil. A sufficient quantity of soil to cover the seeds and level fill the pot was weighed into an open container. A known amount of the test compound was dissolved or suspended in an organic solvent and applied by spraying to this cover soil. The cover soil was thoroughly mixed to distribute the test compound throughout the cover soil, and was then applied as a cover layer over the seeds. Untreated soil was used as a cover layer for control pots. After treatment the plants were placed in a greenhouse where they received 0.64 cm of overhead irrigation. All subsequent watering consisted of a light overhead mist and/or subirrigation as needed for germination and growth. Tables 9 and 10 below relate to warm season plant species which were placed after pre-emergence treatment in a greenhouse with a 30/21° C. day/night temperature regime. Tables 11 and 12 below relates to cool season plant species placed after pre-emergence treatment in a greenhouse or growth chamber with an 18/13° C. day/night temperature regime. Only the compounds of Examples 1, 6, 8, 11, 13 and 15-20 were included in PPI tests.
(§4) Approximately 14 days after planting and treating, the plants were observed and herbicidal efficacy recorded as percent inhibition by comparison with untreated plants.

ABUTH (velvetleaf) = assay: Pre-emergence herbicidal activity, warm season; assay type: in vivo, Abutilon theophrasti; details: GR80 = lowest tested rate (300, 100, 30, 10 g/ha) with 80% or greater inhibition; approx. 14 days after treating; 30/21° C.
Outline: as §1

POROL (common purslane) = assay: Pre-plant incorporated (PPI) herbicidal activity, warm season; assay type: in vivo, Portulaca oleracea; details: GR80 = lowest tested rate with 80% or greater inhibition, approx. 14 days after treating, 30/21° C.
Experimental: as §2, §3, §4

Row | SMILES | Pre-emergence activity (GR80) CONAR (CONAR (field bindweed) [1]) | Pre-emergence activity (GR80) DATST (DATST (jimsonweed)) | PPI activity (GR80) CONAR (CONAR (field bindweed) [2]) | Pre-emergence activity (GR80) ABUTH (ABUTH (velvetleaf)) | PPI activity (GR80) POROL (POROL (common purslane)) [g/ha]
1 | CCN(CC)C(=O)n1cnc(S(=O)(=O)C(F)(F)C(F)(F)SC)n1 [Example 14] | * (activity observed, at least at highest rate, but <80% inhibition) |  |  |  | 
2 | CCN(CC)C(=O)n1cnc(S(=O)(=O)C(F)(F)F)n1 [Example 2] | 300 g/ha | 300 g/ha |  |  | 
3 | C=C(C)CC(F)(F)S(=O)(=O)c1ncn(C(=O)N(CC)CC)n1 [Example 18] |  | 300 g/ha | 100 g/ha | * (activity observed, at least at highest rate, but <80% inhibition) | 100
4 | CCSC(F)(F)S(=O)(=O)c1ncn(C(=O)N(CC)CC)n1 [Example 8, 1-(N,N-diethylcarbamoyl)-3-[difluoro(ethylthio)methylsulfonyl]-1,2,4-triazole] | 100 g/ha | 300 g/ha | 300 g/ha | 300 g/ha | 100
5 | C=C(Br)CC(F)(F)S(=O)(=O)c1ncn(C(=O)N(CC)CC)n1 [Example 19] | * (activity observed, at least at highest rate, but <80% inhibition) | * (activity observed, at least at highest rate, but <80% inhibition) | 300 g/ha |  | 100
6 | C=C(CC(F)(F)S(=O)(=O)c1ncn(C(=O)N(CC)CC)n1)C[Si](C)(C)C [Example 20] | * (activity observed, at least at highest rate, but <80% inhibition) |  | * (activity observed, at least at highest rate, but <80% inhibition) | 300 g/ha | 100
7 | CCN(CC)C(=O)n1cnc(S(=O)(=O)C(F)(F)C(F)F)n1 [Example 16] | 300 g/ha | 300 g/ha | 100 g/ha | 300 g/ha | 10
8 | CCN(CC)C(=O)n1cnc(S(=O)(=O)C(F)(F)SCCOC)n1 [Example 13] |  |  | * (activity observed, at least at highest rate, but <80% inhibition) | 300 g/ha | 100
9 | CCN(CC)C(=O)n1cnc(S(=O)(=O)C(F)(F)C(F)(F)Br)n1 [Example 4] |  | 300 g/ha |  |  | 
10 | CCN(CC)C(=O)n1cnc(S(=O)(=O)C(F)(F)SCC(=O)OC)n1 [Example 11] |  |  | 100 g/ha |  | 300
11 | CCN(CC)C(=O)n1cnc(S(=O)(=O)C(F)(F)Cl)n1 [Example 3] | 300 g/ha | 100 g/ha |  |  | 
12 | CCN(CC)C(=O)n1cnc(S(=O)(=O)C(F)(F)C(=O)c2ccccc2)n1 [Example 6] |  |  | * (activity observed, at least at highest rate, but <80% inhibition) |  | 300
13 | CCN(CC)C(=O)n1cnc(S(=O)(=O)C(F)(F)SC)n1 [Example 9] | 300 g/ha | 300 g/ha |  |  | 
14 | C=CCC(F)(F)S(=O)(=O)c1ncn(C(=O)N(CC)CC)n1 [Example 17, 1-(N,N-diethylcarbamoyl)-3-[(1,1-difluoro-3-butenyl)sulfonyl]-1,2,4-triazole] |  |  | * (activity observed, at least at highest rate, but <80% inhibition) | 300 g/ha | 30
